The subject of experiment [1] is blood-sugar level of normal mice. In words: Effect of Sequoyitol on blood-sugar level of normal mice. The experiment is classed as in vivo, Kunming mice. The conditions noted are these: Glibenclamide 50 mg/kg oral 7 days. How it is done:
1. Experimental Method^[3] • 60 Mice were randomly divided into 5 groups, […] according to 0.1 ml/10 g of body weight, respectively, and the normal group was administrated with the same volum of the same volum of distilled water. These administrations were conducted for continuous 7 days. The blood-sugar levels were detected by glucose oxidase method.

For experiment [2], the system named is mouse hyperglycemia induced by adrenalin. In words: Effect of Sequoyitol on mouse hyperglycemia induced by adrenalin. The conditions noted are these: Glibenclamide 10 mg/kg oral 7 days. The class given is in vivo, Kunming mice. On the procedure:
1. Experimental Methods^[3] • 72 Mice were randomly divided into 6 groups, wherein 4 groups were orally administrated with 25, 50 and 100 mg/kg of Sequoyitol and 10 mg/kg of Glibenclamide according to 0,1 ml/10 g of body weight, respectively, and the normal group and modeling group were administrated with the same volum of distilled water. These administrations were conducted for continuous 7 days. The normal group was administrated with the same volum of physiological saline by injection, while other groups were administrated with 0.2 mg/kg of adrenalin by intra-abdominal injection. The blood-sugar levels were detected by glucose oxidase method after 30 minutes of administration. The livers of the mice were collected, and hepatic glycogen levels were detected by anthrone method.

Experiment [3] deals with mouse hyperglycemia induced by alloxan. Description: Time-effect relation of Sequoyitol to mouse hyperglycemia induced by alloxan. The class given is in vivo, Kunming mice. The conditions noted are these: phenformine 75 mg/kg p.o. 7 days. On the procedure: 1. Experimental Methods^[1,2] • Alloxan was administrated to each of 30 mice by caudal vein injection with a dose of 65 mg/kg, and the mice were modeled according to the method of documents, divided into 3 groups according to blood-sugar values, […] according to […] of body weight, and the modeling group was administrated with the same volum of distilled water, separately. These administrations were conducted for continuous 7 days, and the mice were fasted for 2 hours before the last administration, and their blood-sugar levels were detected by glucose oxidase method at 1 2, 3 and 5 hours after the last administration.

For experiment [4] the test system is unchanged. In words: Effects of Sequoyitol on mouse hyperglycemia induced by alloxan. The experiment is classed as in vivo, Kunming mice. The conditions noted are these: phenformine 75 mg/kg p.o. 7 days. On the procedure: 1. Experimental Methods^[1,2] • Among 60 mice, 10 mice were randomly selected as normal group, and the residual mice were administrated with 65 mg/kg alloxan by caudal vein injection, modeled according to the method of documents, and divided into 5 groups according to blood-sugar values, wherein 4 groups were perorally administrated with 25, 50 and 100 mg/kg of Sequoyitol and 75 mg/kg of phenformine according to 0.1 ml/10 g of body weight, respectively, and the normal group and modeling group were administrated with the same volum of distilled water, separately. These administrations were conducted for continuous 7 days. The blood-sugar levels were detected by glucose oxidase method. The pancreatic glands of the mice were soaked in 10% formalin, embedded with paraffin, sliced, and dyed with HE dye.

Experiment [5] has as its system mouse hyperglycemia induced by glucose. Description: Effect of Sequoyitol on mouse hyperglycemia induced by glucose. The experiment is classed as in vivo, Kunming mice. The conditions noted are these: phenformine 75 mg/kg oral 7 days; 30, 60, 90, 120 minutes after i.p. glucose. How it is done:
1. Experimental Method^[4] • 72 Mice were randomly divided into 6 groups, […] according to 0.1 ml/10 g of body weight, respectively, and the normal group and modeling group were administrated with the same volum of distilled water. These administrations were conducted for continuous 7 days. The normal group was administrated with the same volum of physiological saline by injection, while other groups were administrated with […] of glucose by intra-abdominal injection. After 30, 60, 90 and 120 minutes of administration, bloods were collected from venous plexus behind fossa orbitalis, the serums were separated, and the blood-sugar levels were separately detected by glucose oxidase method.

Experiment [6] concerns rat hyperglycemia induced by alloxan. In words: Effect of Sequoyitol on rat hyperglycemia induced by alloxan. The experiment is classed as in vivo, SD rats. On the procedure: 1. Experimental Methods^[5,6] • 5 Rats were randomly selected as normal group, the other 55 rats were fasted for 14-16 hours, administrated with 30 mg/kg of Pentobarbital by intra-abdominal injection. After paralyzed, the rats were administrated with 48 mg/kg of alloxan by vena femoralis injection, modeled according to methods of documents, and divided into 5 groups according to blood-sugar level, wherein each group had 11 rats, and 4 groups were orally administrated with 25, 50 and 100 mg/kg of Sequoyitol and 75 mg/kg of phenformine according to 1 ml/100 g of body weight, respectively, and the normal group and modeling group were administrated with the same volum of distilled water. These administrations were conducted for continuous 18 days. The fasting blood-sugar levels of the rats were separately measured at 6th and 12th day after the administration. At the 18th day, blood was collected from arteria femoralis, and the blood sugar level, insulin level, cholesterol content, triglyceride content, malonaldehyde content, and hepatocuprein activity of serum were measured; liver tissue was homogenated, and the malonaldehyde content, and hepatocuprein activity of liver tissue were measured; and pancreatic gland was soaked in 10% formalin, embedded with paraffin, sliced, and dyed with HE.

Experiment [7] has as its system mouse hyperglycemia induced by Streptozocin. In words: Effect of Sequoyitol on mouse hyperglycemia induced by Streptozocin. The experiment is classed as in vivo, Kunming mice. How it is done:
1. Experimental Methods^[7,8] • Among 66 mice, 10 mice were randomly selected as normal group, and the residual mice were administrated with 160 mg/kg Streptozocin by vena caudalis injection, modeled according to methods of documents, and divided into 5 groups according to blood-sugar level, wherein 4 groups were perorally administrated with 25, 50 and 100 mg/kg of Sequoyitol and 75 mg/kg of phenformine according to 0.1 ml/10 g of body weight, respectively, and the normal group and modeling group were administrated with the same volum of distilled water. These administrations were conducted for continuous 18 days. The blood-sugar levels of the mice were separately measured at 6th and 12th day after the administration. At the 18th day, blood was collected by excising eyeballs, serum was separated, and the blood sugar level, insulin level, cholesterol content, triglyceride content, malonaldehyde content, and hepatocuprein activity of serum were measured; liver tissue was homogenated, and the malonaldehyde content and hepatocuprein activity of liver tissue were measured; and pancreatic gland was soaked in 10% formalin, embedded with paraffin, sliced, and dyed with HE.

The mark [8] stands for this setting: phenformine 75 mg/kg oral 18 days.
The mark [9] stands for this setting: phenformine 75 mg/kg p.o. 18 days.

With `COc1ccc(Cl)cc1C(=O)NCCc1ccc(S(=O)(=O)NC(=O)NC2CCCCC2)cc1` [Glibenclamide, reference compound], in experiment [1], the “blood-sugar level decreased compared to the normal group” value stood at 19.3 mg/dL. The “blood-sugar level decreased compared to the control group” value in experiment [2] (30 minutes after adrenalin 0.2 mg/kg i.p.) turned out to be 40.1 mg/dL. The “hepatic glycogen level increased compared to the control group” value in experiment [2] (adrenalin model) is 1.28 mg/g of liver tissue.

`[H]/N=C(/N)N/C(=N/[H])NCCc1ccccc1` [phenformine, reference compound]: the “blood-sugar level decreased compared to the control group” value in experiment [3] (1 hour after last administration) was 163.1 mg/dL. In experiment [3] (2 hours after last administration), the “blood-sugar level decreased compared to the control group” value worked out at 159.3 mg/dL. The “blood-sugar level decreased compared to the control group” value in experiment [3] (3 hours after last administration) is 104.2 mg/dL. Besides, the “blood-sugar level decreased compared to the control group” value in experiment [3] (5 hours after last administration) was 56.6 mg/dL. In addition, in experiment [4], the “blood-sugar level decreased compared to the control group” value came out at 152.8 mg/dL; the “number of pancreatic islands and number of islet cells (histopathologic examination) compared to the model group” value is listed as “increased slightly”. Further, in experiment [5], the “glucose-induced hyperglycemia compared to the control group” value is “highly significantly alleviated”. In addition, the “body weight of rats compared to the control group” value in experiment [6] (phenformine 75 mg/kg oral) is given as “did not significantly change”. Besides, in experiment [6] (setting [8]), the “activity of hepatocuprein in liver tissue compared to the control group” value is “did not significantly change”, the “activity of hepatocuprein in serum compared to the control group” value is listed as “did not significantly change”, the “content of cholesterol in serum compared to the control group” value was “did not significantly change” and the “content of malonaldehyde in liver tissue compared to the control group” value is “decreased slightly”. Also, in experiment [6] (setting [8]), the “content of malonaldehyde in serum compared to the control group” value is “decreased slightly”, the “content of triglyceride in serum compared to the control group” value is “did not significantly change” and the “serum insulin level compared to the control group” value is “increased”. The “alloxan-induced hyperglycemia compared to the control group” value in experiment [6] (phenformine 75 mg/kg oral, since the 6th day) is “highly significantly alleviated”. Moreover, the “body weight of mice compared to the control group” value in experiment [7] (phenformine 75 mg/kg p.o.) is reported as “did not significantly change”. In experiment [7] (setting [9]), the “activity of hepatocuprein in serum compared to the control group” value is “did not significantly change”, the “content of cholesterol in serum compared to the control group” value is on record as “did not significantly change”, the “content of malonaldehyde in liver tissue compared to the control group” value is listed as “did not significantly change” and the “content of triglyceride in serum compared to the control group” value is on record as “did not significantly change”. In experiment [7] (setting [9]), the “hyalinization of interstitial small vessels (histopathologic examination)” value is listed as “not alleviated”; the “number of pancreatic islands and number of cells in pancreatic islands (histopathologic examination)” value was “slightly increased”; the “serum insulin level compared to the control group” value is “increased”. Also, the “Streptozocin-induced hyperglycemia compared to the control group” value in experiment [7] (phenformine 75 mg/kg p.o., 12th day) is reported as “significantly alleviated”.

Source of the values: patent US20060135624A1, “Natural compound useful for treating diabetes, its preparation and use” (JINGYU LIANG ET AL, priority 2002, published 2006).
